Results reported in US11077123B2 (priority 2016, dated 2021).

Key:
[1] = test system: S. Infantis and the E. coli strains; assay: Bacterial viability / growth in the conjugation experiments; type: cell-based, Salmonella enterica serovar Infantis; E. coli; details: 2% of the substance
[2] = test system: pESI conjugation between S. Infantis 119944 (donor) and E. coli ORN172 (recipient); assay: pESI conjugation (mating) experiments on LB agar plates; type: cell-based, Salmonella enterica serovar Infantis; E. coli; details: pESI transfer, LB agar plates supplemented with 2% (w/v) of the substance
Clostridium perfringens = details: varying concentrations; cited from earlier work

| SMILES | growth (rate) of S. Infantis and the E. coli strains [1] | conjugation frequency [2] | bacterial viability (Clostridium perfringens) |
| --- | --- | --- | --- |
| C[C@H](CCC(=O)O)[C@H]1CC[C@H]2[C@@H]3[C@H](O)C[C@@H]4C[C@H](O)CC[C@]4(C)[C@H]3CC[C@]12C [chenodeoxycholic acid] | inhibited the growth | transconjugants in the presence of these regents were not produced | – |
| C[C@H](CCC(=O)O)[C@H]1CC[C@H]2[C@@H]3[C@H](O)C[C@@H]4C[C@H](O)CC[C@]4(C)[C@H]3C[C@H](O)[C@]12C [cholic acid] | – | significant decrease | – |
| C[C@H](CCC(=O)NCC(=O)O)[C@H]1CC[C@H]2[C@@H]3[C@H](O)C[C@@H]4C[C@H](O)CC[C@]4(C)[C@H]3CC[C@]12C [glycine-conjugated chenodeoxycholic acid] | – | – | significantly reduced bacterial viability |
| NCC(=O)O [glycine] | inhibited the growth | transconjugants in the presence of these regents were not produced | – |
| C[C@H](CCC(=O)O)[C@H]1CC[C@H]2[C@@H]3CC[C@@H]4C[C@H](O)CC[C@]4(C)[C@H]3CC[C@]12C [lithocholic acid, 3α-hydroxy-5β-cholan-24-oic acid] | no effect on the growth rate | significant decrease | – |
| NCCS(=O)(=O)O [taurine, 2-aminoethanesulfonic acid] | no effect on the growth rate | inhibit conjugation to a lower degree | – |
| C[C@H](CCC(=O)NCCS(=O)(=O)O)[C@H]1CC[C@H]2[C@@H]3[C@H](O)C[C@@H]4C[C@H](O)CC[C@]4(C)[C@H]3CC[C@]12C [taurine-conjugated chenodeoxycholic acid] | – | – | significantly reduced bacterial viability |
